Here are results for six compounds from paper PMC8955307, “Nucleobase-Derived Nitrones: Synthesis and Antioxidant and Neuroprotective Activities in an In Vitro Model of Ischemia–Reperfusion” (International Journal of Molecular Sciences, 2022).

Several values for one entry are separate records, joined by “and”; a condition that tells them apart may be missing. Equal values may be shown once.

The target in one assay is T1, Soybean Lipoxygenase (SLOX) (Glycine max, UniProt P08170).
T1 sequence (P08170 1-839): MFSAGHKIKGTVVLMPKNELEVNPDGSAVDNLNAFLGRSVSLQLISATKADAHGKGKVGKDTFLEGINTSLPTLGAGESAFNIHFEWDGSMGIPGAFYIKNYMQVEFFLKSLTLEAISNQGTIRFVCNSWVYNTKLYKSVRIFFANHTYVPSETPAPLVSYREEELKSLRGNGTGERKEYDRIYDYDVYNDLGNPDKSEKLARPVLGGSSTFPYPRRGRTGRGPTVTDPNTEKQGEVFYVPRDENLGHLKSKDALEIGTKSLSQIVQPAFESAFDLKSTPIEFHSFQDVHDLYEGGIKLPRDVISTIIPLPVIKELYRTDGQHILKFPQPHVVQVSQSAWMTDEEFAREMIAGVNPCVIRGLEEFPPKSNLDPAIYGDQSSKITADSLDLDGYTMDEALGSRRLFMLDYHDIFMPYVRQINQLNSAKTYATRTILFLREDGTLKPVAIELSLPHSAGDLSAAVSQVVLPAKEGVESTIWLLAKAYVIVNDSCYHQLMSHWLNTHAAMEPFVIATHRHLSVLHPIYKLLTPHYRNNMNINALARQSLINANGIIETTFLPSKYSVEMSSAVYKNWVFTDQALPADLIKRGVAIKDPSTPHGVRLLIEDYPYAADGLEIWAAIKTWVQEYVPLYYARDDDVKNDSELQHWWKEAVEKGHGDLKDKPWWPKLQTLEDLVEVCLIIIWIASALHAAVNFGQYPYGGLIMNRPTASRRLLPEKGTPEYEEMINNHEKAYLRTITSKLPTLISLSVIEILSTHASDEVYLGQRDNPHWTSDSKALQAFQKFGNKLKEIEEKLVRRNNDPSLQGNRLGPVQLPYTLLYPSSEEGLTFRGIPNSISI
As to the kind of experiment: In vitro inhibition of soybean lipoxygenase (UV absorbance-based enzyme assay). It counts as biochemical. The following applies: soybean LOX, sodium linoleate substrate, pH 9. As for the experimental part: The experimental conditions followed our previously reported protocol. Sodium linoleate was used as a substrate (0.1 mM) with 0.2 mL of the saline solution of SLOX (1/9 × 10^−4 w/v) in the Tris buffer pH 9.
The compound `C/[N+]([O-])=C/Cn1cc(Br)c(=O)[nH]c1=O` [9d] showed a half-maximal inhibitory concentration (IC50) of 35 µM.

Regarding `C/[N+]([O-])=C/Cn1cc(Br)c(=O)n(C/C=[N+](/C)[O-])c1=O` [9i], inhibition was half-maximal at 57.5 µM (IC50).

Regarding `Cc1cn(C/C=[N+](/C)[O-])c(=O)[nH]c1=O` [9b], the IC50 was found to be 79 µM.

Compound `C/[N+]([O-])=C/Cn1cnc2c(N)ncnc21` [9f] registered an IC50 of 31 µM.

In turn, `C/[N+]([O-])=C/Cn1cc(Cl)c(=O)[nH]c1=O` [9e] gave an IC50 of 65 µM.

The same assay, now with this note: tested at 100 µM.
Take `CC(C)(C)[N+]([O-])=Cc1ccccc1` [PBN, α-phenyl-N-tert-butylnitrone, reference compound]: the “LOX (%) inhibition” value worked out at 23%.

Another assay relates to SH-SY5Y human neuroblastoma cells. The assay is described as follows: Anti-necrotic effect: LDH release after OGD (4 h) and 24 h OGR (IR). The conditions noted are these: Homo sapiens, OGD 4 h + 24 h OGR (IR), compounds 0.1 μM to 1 mM, read-out: LDH Release Inhibition IC50 ±SEM. It counts as cell-based. The procedure:
To induce experimental ischemia, and the sub-consequent cellular damage, the neuroblastoma cultures underwent OGD for 3–4 h, maintained in a glucose-free Dulbecco’s medium inside an anaerobic chamber in the presence of a gas mixture of 95% N2/5% CO2 and humidified at 37 °C at a constant pressure of 0.15 bar. After the OGD period (4 h), medium was substituted by oxygenated 10% FCS-containing medium, and cells were incubated in conditions of normoxia for 24 h to recovery (R24h). The compounds used in the neuroprotection studies: nitrones 9a–i, α-phenyl-N-tert-butyl nitrone (PBN) and N-acetyl-L-cysteine (NAC) (0.01 μM−1000 µM), were added at the beginning of R24h as described. Concurrently, controls in the absence of the OGD procedure were performed by maintaining these cells with Dulbecco’s medium including glucose for 3–4 h in an incubator in conditions of normoxia during the OGD period; thereafter, the medium was changed, and the cells (in the presence or absence of the different study compounds) were returned to the incubator for 24 h of recovery, as described. In addition, experiments including the same amounts of vehicle (final concentration < 1% dimethyl sulfoxide) were performed, serving as controls. The effects of nitrones 9a–g were analyzed three-five times independently using different culture batches, and each experiment was carried out in triplicate.
Anti-necrotic cell activity was evaluated by culturing SHSY5Y cells in 48-well dishes, in a density of 2 × 10^5 cells/well and treating them as controls or under the OGD-R24h procedure, adding the testing compounds at 0.01–1000 µM (see point 4.2.2.). Media of every well were collected in Eppendorf tubes properly labelled and stored at −20 °C until measurement (samples would be needed to measure extracellular NADH). Afterwards, each well was recharged with a 0.1 M Phosphate Buffer with 0.5% Triton X-100, pH 7.5, in order to scratch the cells from the bottom of the well. After a 13.000 rpm centrifugation, the soluble fractions are collected and labelled (samples would be essential to measure intracellular NADH). Finally, LDH activity was quantified as the degree of absorbance declined at 340, indicating the oxidation of NADH to NAD+ as described. Results are expressed as the LDH activity of the extracellular medium referred to the total LDH activity after cell lysis.
A general note: LDH leaks from cells whose membrane has failed.
As to `C/[N+]([O-])=C/Cn1cc(Br)c(=O)[nH]c1=O` [9d], the IC50 was found to be 50.2 ± 8.87 µM.

Consider `C/[N+]([O-])=C/Cn1cc(Br)c(=O)n(C/C=[N+](/C)[O-])c1=O` [9i], for which the concentration for half-maximal inhibition (IC50) was found to be 43.1 ± 6.5 µM.

For `Cc1cn(C/C=[N+](/C)[O-])c(=O)[nH]c1=O` [9b], the IC50 came to 23.2 ± 2.64 µM.

As to `C/[N+]([O-])=C/Cn1cnc2c(N)ncnc21` [9f], the 50% inhibitory concentration (IC50) was determined as 3.93 ± 0.05 µM.

For `C/[N+]([O-])=C/Cn1cc(Cl)c(=O)[nH]c1=O` [9e], the IC50 turned out to be 12 ± 1.71 µM.

Still in this assay, the particulars now being: Homo sapiens, OGD 4 h + 24 h OGR (IR), read-out: Maximal Inhibition Mean±SEM (LDH release).
On to `C/[N+]([O-])=C/Cn1cc(Br)c(=O)[nH]c1=O` [9d], for which the Emax came out at 120 ± 4.62%.

As to `C/[N+]([O-])=C/Cn1cc(Br)c(=O)n(C/C=[N+](/C)[O-])c1=O` [9i], the Emax is 121 ± 5.82%.

Turning to `Cc1cn(C/C=[N+](/C)[O-])c(=O)[nH]c1=O` [9b], the Emax was 122 ± 1.84%.

Regarding `C/[N+]([O-])=C/Cn1cnc2c(N)ncnc21` [9f], the Emax was 129 ± 2.26%.

With `C/[N+]([O-])=C/Cn1cc(Cl)c(=O)[nH]c1=O` [9e], the Emax was 98.6 ± 2.24%.

Still in this assay, the particulars now being: OGD 4 h + 24 h OGR (IR).
Regarding `CC(C)(C)[N+]([O-])=Cc1ccccc1` [PBN, α-phenyl-N-tert-butylnitrone, reference compound], the “Maximal Inhibition Mean±SEM (LDH release)” value is 77.51 ±5.75% and ≈ 75%.

The assay is the same for the next values; noted with them: OGD 4 h + 24 h OGR (IR), compounds 0.1 μM to 1 mM, read-out: LDH Release Inhibition IC50 ±SEM.
On to `CC(C)(C)[N+]([O-])=Cc1ccccc1` [PBN, α-phenyl-N-tert-butylnitrone, reference compound], for which the half-maximal inhibitory concentration (IC50) was 5.28 µM and ~5 µM.

The test system of the next assay is human neuroblastoma SH-SY5Y cells. As to the kind of experiment: Superoxide radical production (DHE fluorescence) after OGD and 3 h OGR (IR). Format: cell-based. The following applies: Homo sapiens, OGD + 3 h OGR (IR), compounds 0.1 to 1000 μM, read-out: Antioxidant Activity EC50 ± SEM (superoxide production). The procedure:
A density of 2–2.5 × 10^5 SHSY5Y cells/well was used to seed in 48-well plates to quantify superioxide anion formation. Firstly, cultured cells were exposed to OGD treatment for 3–4 h or maintained in normoxic conditions (controls). Thereafter, medium was replaced with oxygenated Dulbecco’s: Ham’s F12 medium with glucose, 1% Antibiotic-Antimycotic, 1% Gentamicin and 10% FCS. Cells were incubated in the absence (controls) or presence of indicated concentrations of the compounds of study, at 37 °C for 3 h. […] For every condition, the linear regression of fluorescence data (expressed in arbitrary fluorescence units, AFU) was calculated, and the slopes (a) of the best fitting lines (y = ax) were considered as an index of superoxide production, as described previously.
In the case of `C/[N+]([O-])=C/Cn1cc(Br)c(=O)[nH]c1=O` [9d], the EC50 is 46.4 ± 9.49 µM.

With `C/[N+]([O-])=C/Cn1cc(Br)c(=O)n(C/C=[N+](/C)[O-])c1=O` [9i], the EC50 worked out at 1.12 ± 0.13 µM.

Take `Cc1cn(C/C=[N+](/C)[O-])c(=O)[nH]c1=O` [9b]: the 50% effective concentration (EC50) is 0.72 ± 0.16 µM.

With `C/[N+]([O-])=C/Cn1cnc2c(N)ncnc21` [9f], the EC50 is 1.4 ± 0.66 µM.

For `C/[N+]([O-])=C/Cn1cc(Cl)c(=O)[nH]c1=O` [9e], the EC50 came to 12.9 ± 1.43 µM.

Staying with this assay, now noted: Homo sapiens, OGD + 3 h OGR (IR), read-out: Maximal Activity mean±SEM (antioxidant).
`C/[N+]([O-])=C/Cn1cc(Br)c(=O)[nH]c1=O` [9d]: the Emax was found to be 114 ± 7.72%.

For the compound `C/[N+]([O-])=C/Cn1cc(Br)c(=O)n(C/C=[N+](/C)[O-])c1=O` [9i], the Emax was 107 ± 2.72%.

Regarding `Cc1cn(C/C=[N+](/C)[O-])c(=O)[nH]c1=O` [9b], the Emax is 100 ± 2.26%.

On to `C/[N+]([O-])=C/Cn1cnc2c(N)ncnc21` [9f], for which the Emax is 106 ± 9.39%.

On to `C/[N+]([O-])=C/Cn1cc(Cl)c(=O)[nH]c1=O` [9e], for which the Emax was found to be 89.3 ± 5.33%.

Staying with this assay, now noted: OGD + 3 h OGR (IR).
`CC(C)(C)[N+]([O-])=Cc1ccccc1` [PBN, α-phenyl-N-tert-butylnitrone, reference compound]: the “Maximal Activity mean±SEM (antioxidant)” value is 93.57±2.94%.

The assay is the same for the next values; noted with them: OGD + 3 h OGR (IR), compounds 0.1 to 1000 μM, read-out: Antioxidant Activity EC50 ± SEM (superoxide production).
Consider `CC(C)(C)[N+]([O-])=Cc1ccccc1` [PBN, α-phenyl-N-tert-butylnitrone, reference compound], for which the EC50 was found to be 5.86 ± 0.63 µM.

Test system in another assay: not listed separately
The assay is described as follows: Hydroxyl radical scavenging (competition with DMSO). The conditions noted are these: tested at 100 µM. As for the experimental part:
The competition of the tested nitrones (100 µM) with DMSO (33 mM) in the phosphate buffer (50 mM), pH 7.4, was used. The hydroxyl radicals were generated by the Fe^3+/ascorbic acid system (EDTA 0.1 mM, Fe^3+ 167 µM, ascorbic acid 10 mM), and the samples were incubated at 37 °C/30 min. A 17% w/v solution of CCl3CO2H was used to stop the radical propagation. The percentage scavenging activity was compared to Trolox used as a reference.
On to `C/[N+]([O-])=C/Cn1cc(Br)c(=O)[nH]c1=O` [9d], for which the “OH (%) scavenging” value is 90%.

As to `C/[N+]([O-])=C/Cn1cc(Br)c(=O)n(C/C=[N+](/C)[O-])c1=O` [9i], the “OH (%) scavenging” value was “inactive and No”.

On to `Cc1cn(C/C=[N+](/C)[O-])c(=O)[nH]c1=O` [9b], for which the “OH (%) scavenging” value is 73%.

As to `CC(C)(C)[N+]([O-])=Cc1ccccc1` [PBN, α-phenyl-N-tert-butylnitrone, reference compound], the “OH (%) scavenging” value was “no”.

On to `C/[N+]([O-])=C/Cn1cnc2c(N)ncnc21` [9f], for which the “OH (%) scavenging” value is 66%.

As for `C/[N+]([O-])=C/Cn1cc(Cl)c(=O)[nH]c1=O` [9e], the “OH (%) scavenging” value came out at 87%.

The IC50 is the concentration at which inhibition is half-maximal. In general, EC50 refers to the concentration at which the effect is half-maximal.
